Where a name gives a salt, the structure may show the parent alone. Read-outs that look alike come from different tables or passages of the source.
How the values were obtained:
Format in all cases: biochemical
MASP-2 (CCP1-CCP2-SP) = MASP-2 (CCP1-CCP2-SP) (Homo sapiens (Human), UniProt O00187); experiment: biochemical
human α-thrombin = human α-thrombin (Homo sapiens (Human), UniProt P00734); experiment: Enzymatic assay for thrombin (Boc-VPR-AMC substrate)
Lectin Pathway = experiment: Lectin pathway activation assay in human serum (mannan-coated ELISA, C3c detection); conditions: 1% human serum
mMASP-2 = mMASP-2 (Mus musculus (Mouse), UniProt Q91WP0); experiment: Enzymatic inhibition of mMASP-2; conditions: read-out: mMASP-2 Ki
[1] = selectivity for MASP-2 inhibition versus thrombin
[2] = MASP-2 inhibition versus thrombin

Chain of mMASP-2 (Q91WP0 20-685): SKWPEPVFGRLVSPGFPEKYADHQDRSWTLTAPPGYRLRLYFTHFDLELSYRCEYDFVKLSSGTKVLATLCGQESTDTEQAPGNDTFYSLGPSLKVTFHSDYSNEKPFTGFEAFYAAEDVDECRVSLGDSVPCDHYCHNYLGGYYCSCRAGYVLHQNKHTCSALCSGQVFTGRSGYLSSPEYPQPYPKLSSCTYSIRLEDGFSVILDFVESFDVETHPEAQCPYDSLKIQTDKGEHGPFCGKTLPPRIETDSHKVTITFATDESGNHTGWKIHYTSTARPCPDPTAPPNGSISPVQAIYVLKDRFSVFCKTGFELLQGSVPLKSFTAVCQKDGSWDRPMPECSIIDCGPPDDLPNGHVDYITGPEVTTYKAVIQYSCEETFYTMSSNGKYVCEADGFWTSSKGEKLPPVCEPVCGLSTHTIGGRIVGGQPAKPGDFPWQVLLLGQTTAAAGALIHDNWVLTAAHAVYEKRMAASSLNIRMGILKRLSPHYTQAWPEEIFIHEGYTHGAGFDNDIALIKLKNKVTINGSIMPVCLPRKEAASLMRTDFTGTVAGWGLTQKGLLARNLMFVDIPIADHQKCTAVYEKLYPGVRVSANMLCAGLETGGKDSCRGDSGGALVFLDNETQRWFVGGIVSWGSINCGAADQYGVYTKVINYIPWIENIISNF
Chain of MASP-2 (CCP1-CCP2-SP) (O00187 445-686): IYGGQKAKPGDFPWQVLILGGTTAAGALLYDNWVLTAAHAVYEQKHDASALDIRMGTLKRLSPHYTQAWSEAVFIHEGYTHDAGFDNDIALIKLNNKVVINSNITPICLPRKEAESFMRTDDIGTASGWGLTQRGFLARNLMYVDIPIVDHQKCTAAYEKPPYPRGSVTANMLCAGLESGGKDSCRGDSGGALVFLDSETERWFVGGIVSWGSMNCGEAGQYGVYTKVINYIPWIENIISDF

SMILES	IC50 (Lectin Pathway) [nM]	Ki (MASP-2 (CCP1-CCP2-SP); read-out: MASP-2 Ki) [nM]	Ki (human α-thrombin; read-out: Thrombin Ki) [µM]	further results
C[C@H](NC(=O)c1cc(-c2ccccc2)c(-c2ccccc2)[nH]1)C(=O)NCc1ccc(C(=N)N)cc1 [compound 1240, (S)—N-(1-((4-Carbamimidoylbenzyl)amino)-1-oxopropan-2-yl)-4,5-diphenyl-1H-pyrrole-2-carboxamide]	500 to 5000			Ki (MASP-2 (CCP1-CCP2-SP)): 500 to 2500 nM; MASP-2 vs. thrombin selectivity (MASP-2 (CCP1-CCP2-SP); [1]): ** (≥5.0 to <25-fold); Ki (human α-thrombin; Thrombin Ki (μM)): 10 to 25 µM
CCNC(=O)COc1ccc(Cl)cc1CNC(=O)[C@H](C)NC(=O)[C@H](N)CCc1ccccc1 [compound 1137, (R)-2-Amino-N—((S)-1-((5-chloro-2-(2-(ethylamino)-2-oxoethoxy)benzyl)amino)-1-oxopropan-2-yl)-4-phenylbutanamide]	> 50000			
N=C(N)c1ccc(CNC(=O)[C@@H]2CCN2C(=O)[C@H](NCC(=O)O)C2CCCC2)cc1 [compound 1083]	5000 to 50000	< 500	< 0.5	MASP-2 vs. thrombin selectivity (MASP-2 (CCP1-CCP2-SP); [2]): −− (less than 1.0-fold)
C[C@H](NC(=O)[C@H](N)C1Cc2ccccc2C1)C(=O)NCc1ccc(C(=N)N)cc1 [compound 1035]	< 50	< 500	< 0.5	MASP-2 vs. thrombin selectivity (MASP-2 (CCP1-CCP2-SP); [2]): ** (5.0 to 25-fold)
Cc1nc(N)ccc1CNC(=O)[C@H](C)NC(=O)[C@H]1C[C@H](Cc2cccc3cnccc23)CN1 [compound 1343, (2R,4S)—N—((S)-1-(((6-Amino-2-methylpyridin-3-yl)methyl)amino)-1-oxopropan-2-yl)-4-(isoquinolin-5-ylmethyl)pyrrolidine-2-carboxamide Di-trifluoroacetate salt]	50 to 500			
C[C@H](NC(=O)[C@H](N)Cc1csc2ccccc12)C(=O)NCc1ccc(C(=N)N)cc1 [compound 1099]	50 to 500	< 500	< 0.5	MASP-2 vs. thrombin selectivity (MASP-2 (CCP1-CCP2-SP); [2]): −− (less than 1.0-fold)
N=C(N)c1ccc(CNC(=O)[C@@H]2CCCN2C(=O)[C@H](NCC(=O)O)C2CCCCC2)cc1 [compound 1115]	500 to 5000	< 500	< 0.5	MASP-2 vs. thrombin selectivity (MASP-2 (CCP1-CCP2-SP); [2]): −− (less than 1.0-fold)
N=C(N)c1ccc(CNC(=O)[C@@H]2CCCCN2C(=O)[C@H](NCC(=O)O)C2CCCCC2)cc1 [compound 1127]	5000 to 50000		< 0.5	
Nc1nccc2cc(CNC(=O)[C@@H]3CCN3C(=O)[C@H](N)C3CCCCC3)ccc12 [compound 1041, (S)-1-((R)-2-Amino-2-cyclohexylacetyl)-N-((1-aminoisoquinolin-6-yl)methyl)azetidine-2-carboxamide dihydrochloride]	5000 to 50000		< 0.5	
N=C(N)c1ccc(CNC(=O)[C@@H]2CCN2C(=O)[C@@H](CC2CCCCC2)NCC(=O)O)cc1 [compound 1114]	500 to 5000	< 500	< 0.5	MASP-2 vs. thrombin selectivity (MASP-2 (CCP1-CCP2-SP); [2]): −− (less than 1.0-fold)
Cc1ccc(CSC(C)(C)[C@@H](N)C(=O)N2CC[C@H]2C(=O)NCc2ccc(C(=N)N)cc2)cc1 [compound 1133]	5000 to 50000	< 500	< 0.5	MASP-2 vs. thrombin selectivity (MASP-2 (CCP1-CCP2-SP); [2]): −− (less than 1.0-fold)
N=C(N)c1ccc(CNC(=O)CNC(=O)[C@H](NCC(=O)O)C2CCCCC2)cc1 [compound 1054]	5000 to 50000			
N=C(N)c1ccc(CNC(=O)[C@@H]2CCN2C(=O)[C@H](N)C2CCCC2)cc1 [compound 1008]	5000 to 50000		< 0.5	
Cc1cccc(C2CCNC(C(=O)N[C@@H](C)C(=O)NCc3ccc(C(=N)N)cc3)C2)c1 (stereo partly drawn) [compound 1098]	< 50	< 500		
C[C@H](NC(=O)[C@H](N)C1Cc2ccccc2C1)C(=O)NCc1ccc2nc(N)n(C)c2c1 [compound 1171]	> 50000		> 25	
C[C@H](NC(=O)[C@H]1Cc2ccccc2CN1)C(=O)NCc1ccc2c(N)nccc2c1 [compound 1053]	500 to 5000			
N=C(N)c1ccc(CNC(=O)[C@@H]2CCN2C(=O)[C@H](N)c2ccccc2)cc1 [compound 1011, (S)-1-((R)-2-amino-2-phenylacetyl)-N-(4-carbamimidoylbenzyl)azetidine-2-carboxamide]	500 to 5000	< 500	< 0.5	MASP-2 vs. thrombin selectivity (MASP-2 (CCP1-CCP2-SP); [2]): −− (less than 1.0-fold)
N=C(N)c1ccc(CNC(=O)[C@@H]2CCN2C(=O)[C@H](N)Cc2ccccc2)cc1 [compound 1023]	5000 to 50000		< 0.5	
C[C@H](NC(=O)[C@H](N)CCCc1ccccc1)C(=O)NCc1ccc(C(=N)N)cc1 [compound 1042]	< 50	< 500	< 0.5	MASP-2 vs. thrombin selectivity (MASP-2 (CCP1-CCP2-SP); [2]): ** (5.0 to 25-fold)

SMILES	IC50 (Lectin Pathway) [nM]	Ki (MASP-2 (CCP1-CCP2-SP); read-out: MASP-2 Ki) [nM]	Ki (human α-thrombin; read-out: Thrombin Ki) [µM]	further results
CC(C)(C)[C@@H](NCC(=O)O)C(=O)N1CC[C@H]1C(=O)NCc1ccc(C(=N)N)cc1 [compound 1055]	5000 to 50000		< 0.5	
N=C(N)c1ccc(CNC(=O)[C@@H]2CCN2C(=O)[C@@H](Cc2ccccc2)NCC(=O)O)cc1 [compound 1109]	> 50000		< 0.5	
C[C@H](NC(=O)[C@H]1C[C@@H](c2ccccc2)CCN1)C(=O)NCc1ccc(N)nc1 (stereo in doubt) [compound 1025]	500 to 5000		> 25	
C[C@H](NC(=O)[C@@H](CCc1ccccc1)NCCCc1ccc(O)cc1)C(=O)NCc1ccc(C(=N)N)cc1 [compound 1145]	50 to 500	< 500		
N=C(N)c1ccc(CNC(=O)[C@@H]2CCCCN2C(=O)[C@H](N)C2CCCCC2)cc1 [compound 1051]	5000 to 50000		< 0.5	
N=C(N)c1ccc(CNC(=O)[C@@H]2CCN2C(=O)[C@@H](N)C2CCCCC2)cc1 [compound 1018]	> 50000			
N=C(N)c1ccc(CNC(=O)[C@@H]2CCN2C(=O)[C@H](NCC(=O)O)C2CCCCC2)cc1O [compound 1116, ((R)-2-((S)-2-((4-Carbamimidoyl-3-hydroxybenzyl)carbamoyl)azetidin-1-yl)-1-cyclohexyl-2-oxoethyl)glycine]	5000 to 50000		< 0.5	
C[C@H](NC(=O)[C@H](NCC(=O)O)C1Cc2ccccc2C1)C(=O)NCc1ccc(C(=N)N)cc1 [compound 1123]	500 to 5000			
C[C@H](NC(=O)[C@H]1C[C@@H](c2ccccc2)CCN1)C(=O)NCc1cc(Cl)ccc1O [compound 1078]	500 to 5000	< 500		
Cc1nc(N)ccc1CNC(=O)[C@H](C)NC(=O)[C@H]1C[C@H](c2ccccc2)CCN1 [compound 1308, (2R,4R)—N—((S)-1-(((6-Amino-2-methylpyridin-3-yl)methyl)amino)-1-oxopropan-2-yl)-4-phenylpiperidine-2-carboxamide Dihydrochloride]				Ki (MASP-2 (CCP1-CCP2-SP)): 500 to 2500 nM; MASP-2 vs. thrombin selectivity (MASP-2 (CCP1-CCP2-SP); [1]): ** (≥5.0 to <25-fold); Ki (mMASP-2): 500 to 2500 nM; Ki (human α-thrombin; Thrombin Ki (μM)): 10 to 25 µM
C[C@H](NC(=O)[C@H]1C[C@H](c2ccccc2)CN1)C(=O)NCc1cc(Cl)cc(C(N)=O)c1 [compound 1387, (2R,4R)—N—((S)-1-((3-Carbamoyl-5-chlorobenzyl)amino)-1-oxopropan-2-yl)-4-phenylpyrrolidine-2-carboxamide Trifluoroacetate salt]			> 25	Ki (MASP-2 (CCP1-CCP2-SP)): 2500 to 10000 nM; Ki (mMASP-2): 10000 to 25000 nM
C[C@H](NC(=O)[C@@H](CCc1ccccc1)NCc1ccc[nH]1)C(=O)NCc1ccc(C(=N)N)cc1 [compound 1128]		< 500	< 0.5	MASP-2 vs. thrombin selectivity (MASP-2 (CCP1-CCP2-SP); [2]): * (1.0 to 5.0-fold); Ki (mMASP-2): < 500 nM
Cc1nc(N)ccc1CNC(=O)[C@H](C)NC(=O)[C@@H](CCc1ccccc1)NCCc1cccc(O)c1 [compound 1349, (R)—N—((S)-1-(((6-Amino-2-methylpyridin-3-yl)methyl)amino)-1-oxopropan-2-yl)-2-((3-hydroxyphenethyl)amino)-4-phenylbutanamide Dihydrochloride]			> 25	Ki (MASP-2 (CCP1-CCP2-SP)): 500 to 2500 nM; MASP-2 vs. thrombin selectivity (MASP-2 (CCP1-CCP2-SP); [1]): ** (≥5.0 to <25-fold); Ki (mMASP-2): 2500 to 10000 nM
C[C@H](NC(=O)[C@@H](CCc1ccccc1)NCCc1ccc(O)cc1)C(=O)NCc1ccc(C(=N)N)cc1 [compound 1327, (R)—N—((S)-1-((4-Carbamimidoylbenzyl)amino)-1-oxopropan-2-yl)-2-((4-hydroxyphenethyl)amino)-4-phenylbutanamide dihydrochloride]		< 500	< 0.5	MASP-2 vs. thrombin selectivity (MASP-2 (CCP1-CCP2-SP); [1]): *** (≥25 to <100-fold); Ki (mMASP-2): < 500 nM
C[C@H](NC(=O)[C@H]1C[C@@H](c2cccc(CN)c2)CN1)C(=O)NCc1ccc(C(=N)N)cc1 [compound 1277, (2R,4S)-4-(3-(Aminomethyl)phenyl)-N-((S)-1-((4-carbamimidoylbenzyl)amino)-1-oxopropan-2-yl)pyrrolidine-2-carboxamide]		< 500	< 0.5	MASP-2 vs. thrombin selectivity (MASP-2 (CCP1-CCP2-SP); [1]): ** (≥5.0 to <25-fold); Ki (mMASP-2): < 500 nM
C[C@H](NC(=O)[C@H]1C[C@H](Cc2ccc3ccccc3c2)CN1)C(=O)NCc1cc(Cl)ccc1-n1cnnn1 [compound 1385, (2R,4S)—N—((S)-1-((5-chloro-2-(1H-tetrazol-1-yl)benzyl)amino)-1-oxopropan-2-yl)-4-(naphthalen-2-ylmethyl)pyrrolidine-2-carboxamide Trifluoroacetate salt]		< 500	< 0.5	MASP-2 vs. thrombin selectivity (MASP-2 (CCP1-CCP2-SP); [1]): ** (≥5.0 to <25-fold); Ki (mMASP-2): < 500 nM
C[C@H](NC(=O)[C@H]1C[C@H](c2ccccc2)CN1)C(=O)NCC1CCc2nc(N)sc2C1 (stereo partly drawn) [compound 1281, (2R,4R)—N-((2S)-1-(((2-Amino-4,5,6,7-tetrahydrobenzo[d]thiazol-6-yl)methyl)amino)-1-oxopropan-2-yl)-4-phenylpyrrolidine-2-carboxamide]			> 25	Ki (MASP-2 (CCP1-CCP2-SP)): 2500 to 10000 nM; Ki (mMASP-2): > 25000 nM
Cc1nc(N)ccc1CNC(=O)[C@H](C)NC(=O)[C@H]1C[C@@H](Oc2ccccc2)CN1 [compound 1310, (2R,4R)—N—((S)-1-(((6-Amino-2-methylpyridin-3-yl)methyl)amino)-1-oxopropan-2-yl)-4-phenoxypyrrolidine-2-carboxamide Dihydrochloride]			> 25	Ki (MASP-2 (CCP1-CCP2-SP)): 500 to 2500 nM; MASP-2 vs. thrombin selectivity (MASP-2 (CCP1-CCP2-SP); [1]): *** (≥25 to <100-fold); Ki (mMASP-2): > 25000 nM
